One assay concerns the target T1, hCOX-2 (Homo sapiens, UniProt P35354).
T1 construct: purchased Sigma Aldrich Química S.A., Alcobendas, Spain; host or cells: Sf21 insect cells infected with recombinant baculovirus
T1 sequence (P35354 18-604): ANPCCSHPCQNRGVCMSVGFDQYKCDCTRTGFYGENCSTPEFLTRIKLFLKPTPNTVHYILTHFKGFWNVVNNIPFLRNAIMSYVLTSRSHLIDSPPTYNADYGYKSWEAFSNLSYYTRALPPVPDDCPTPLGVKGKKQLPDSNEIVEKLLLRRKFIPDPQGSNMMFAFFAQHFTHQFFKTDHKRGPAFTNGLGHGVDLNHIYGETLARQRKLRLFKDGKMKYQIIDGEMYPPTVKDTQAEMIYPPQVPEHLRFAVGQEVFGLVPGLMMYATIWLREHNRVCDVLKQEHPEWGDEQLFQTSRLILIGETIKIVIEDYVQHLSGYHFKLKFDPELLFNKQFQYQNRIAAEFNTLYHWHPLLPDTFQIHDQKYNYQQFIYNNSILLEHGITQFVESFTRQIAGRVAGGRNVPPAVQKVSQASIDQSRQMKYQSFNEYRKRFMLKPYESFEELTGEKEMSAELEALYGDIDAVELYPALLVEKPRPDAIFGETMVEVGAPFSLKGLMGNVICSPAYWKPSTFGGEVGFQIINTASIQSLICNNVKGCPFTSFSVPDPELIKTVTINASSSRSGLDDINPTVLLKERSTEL
The assay can be described thus: hCOX activity, TMPD oxidation with AA as substrate, microsomal recombinant hCOX-2 from Sf21 insect cells. The assay is classed as biochemical. The conditions noted are these: for Ratio, index of selectivity SI = [IC50(COX-2)]/[IC50(COX-1)]: COX-2 over COX-1, bounds use the highest concentration tested; for IC50: means ± SEM from five experiments, *** = no active at 500 μM, read-out: COX-2 (IC50). An excerpt:
(§1) The potential effects of the test drugs on total hCOX activity (bis-dioxygenase and peroxidase reactions) were investigated by measuring their effects on the oxidation of N,N,N′,N′-tetramethyl-p-phenylenediamine (TMPD) to […], using AA as common substrate for both hCOX-1 and hCOX-2, microsomal COX-2 prepared from insect cells (Sf21 cells) infected with recombinant baculovirus containing cDNA inserts for hCOX-2 (Sigma Aldrich Química S.A., Alcobendas, Spain), and COX-1 from human platelet microsomes (obtained as described in the above paragraph since, unlike hCOX-2, hCOX-1 is not available commercially).
(§2) Results shown in Table 3 are expressed as means ± SEM from five experiments. Means were compared by one-way analysis of variance (ANOVA) followed by Dunnett's post-hoc test.
(§3) This regression was performed using the data obtained with 4–6 different concentrations of each compound assayed, which inhibited the enzymatic activity of COX control isoform between 20 and 80%.

Another assay concerns the target T2, hCOX-1 (Homo sapiens, UniProt P23219).
T2 construct: COX-1 from human platelet microsomes; from tissue; host or cells: human platelets (microsomes) from donor buffy coat
Kind of assay: hCOX activity, TMPD oxidation with AA as substrate, COX-1 from human platelet microsomes. It is filed as biochemical. The conditions noted are these: means ± SEM from five experiments; *** = no active at 500 μM. Here is the method:
Washed human platelets were prepared from blood anticoagulated with citrate-phosphate-dextrose, which was obtained from Centro de Transfusion de Galicia (Santiago de Compostela, Spain).
The upper layer containing platelets (platelet-rich plasma) was removed and centrifuged at 1000 g for 18 min. The resulting platelet pellet was recovered, resuspended with washing buffer, and centrifuged again at 1000 g for 15 min. Finally, the platelet pellet from this step was resuspended in a modified Tyrode-HEPES buffer (HEPES 10 mM; NaCl 140 mM; KCl 3 mM; MgCl2 0.5 mM; NaHCO3 5 mM; glucose 10 mM; pH 7.4) to afford a cell density of 3–3.5·10^8 platelet/mL. The calcium concentration in the extracellular medium was 2 mM [13].
as §1, §2, §3

A further assay relates to COX-2. More on the design: method as in PMID 17640617. Conditions: ELISA test; cited from earlier work. Background: In an ELISA, binding on a coated surface is turned into a signal by an enzyme label.

Residues, ends and D or L forms follow the SMILES beside them.

T2 sequence (P23219 24-599): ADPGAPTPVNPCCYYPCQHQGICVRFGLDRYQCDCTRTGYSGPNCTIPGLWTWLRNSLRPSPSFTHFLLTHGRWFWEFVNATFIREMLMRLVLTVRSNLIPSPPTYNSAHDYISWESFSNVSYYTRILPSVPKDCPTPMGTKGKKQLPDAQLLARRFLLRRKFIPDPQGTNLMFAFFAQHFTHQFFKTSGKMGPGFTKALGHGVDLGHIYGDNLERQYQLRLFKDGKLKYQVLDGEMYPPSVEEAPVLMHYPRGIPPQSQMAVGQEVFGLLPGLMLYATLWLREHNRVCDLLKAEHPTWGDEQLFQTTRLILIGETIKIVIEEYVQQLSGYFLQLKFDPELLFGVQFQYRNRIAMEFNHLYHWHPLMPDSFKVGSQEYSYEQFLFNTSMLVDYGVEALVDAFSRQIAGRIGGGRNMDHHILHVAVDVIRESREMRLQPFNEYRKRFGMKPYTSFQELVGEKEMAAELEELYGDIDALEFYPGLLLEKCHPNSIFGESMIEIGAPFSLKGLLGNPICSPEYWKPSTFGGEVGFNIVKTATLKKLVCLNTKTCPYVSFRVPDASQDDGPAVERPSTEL

Usually IC50 stands for the concentration that gives 50% inhibition. In the case of `C[C@H](N)C(=O)NCC(=O)N[C@@H](CCCNC(=N)N)C(=O)O` [Peptide S10, AGR] (H-Ala-Gly-Arg-OH), at hCOX-2, the “Ratio, index of selectivity SI = [IC50(COX-2)]/[IC50(COX-1)]” value (“Ratio, index of selectivity SI =” for short) is reported as 0.7991 and the IC50 was determined as 79.2 ± 2.15 µM. In addition, the IC50 on hCOX-1 is 99.1 ± 1.55 µM.

`N=C(N)NCCC[C@H](NC(=O)[C@H](CCC(=O)O)NC(=O)[C@@H]1CCCN1)C(=O)O` [Peptide S7, PER] (H-Pro-Glu-Arg-OH): at hCOX-2, the “Ratio, index of selectivity SI =” value worked out at 0.8792 and the IC50 worked out at 88.2 ± 3.01 µM. This compound gave an IC50 against hCOX-1 of 100 ± 2.19 µM.

For the compound `N=C(N)NCCC[C@H](NC(=O)[C@@H](N)CC(=O)O)C(=O)N[C@@H](CS)C(=O)O` [Peptide S5, DRC] (H-Asp-Arg-Cys-OH), at hCOX-2, the “Ratio, index of selectivity SI =” value worked out at 0.6195. Moreover, the IC50 amounted to 100 ± 2.33 µM at hCOX-2 and 161 ± 2.57 µM against hCOX-1.

As for `CSCC[C@H](NC(=O)CN)C(=O)N[C@@H](CC(=O)O)C(=O)O` [Peptide S1, Gly-Met-Asp] (H-Gly-Met-Asp-OH), on hCOX-2, the “Ratio, index of selectivity SI =” value is given as 0.6255. Moreover, the results for the IC50 at hCOX-2 and on hCOX-1 were 94 ± 2.59 µM and 150 ± 2.34 µM, respectively.

For the compound `CC[C@H](C)[C@H](NC(=O)[C@H](Cc1c[nH]cn1)NC(=O)[C@@H](N)CCCCN)C(=O)O` [Peptide S8, KHI] (H-Lys-His-Ile-OH), on hCOX-2, the “Ratio, index of selectivity SI =” value amounted to 0.7484 and the IC50 was 91.7 ± 2.98 µM. This compound showed an IC50 on hCOX-1 of 122 ± 3.78 µM.

As to `COc1ccc(-c2nc(C(=O)N3CCN(C)CC3)sc2-c2ccc(OC)cc2)cc1` [FR122047, reference compound], the figures for the IC50 on hCOX-2 and on hCOX-1 were over 500 µM and 93.8 ± 6.55 µM, respectively.

On to `C[C@H](N)C(=O)N[C@@H](CCCNC(=N)N)C(=O)N[C@@H](C)C(=O)O` [Peptide S6, ARA] (H-Ala-Arg-Ala-OH), for which, at hCOX-2, the “Ratio, index of selectivity SI =” value turned out to be 0.8914 and the IC50 is 91.2 ± 2.41 µM. The compound also yielded an IC50 against hCOX-1 of 102 ± 1.14 µM.

For `N=C(N)NCCC[C@H](NC(=O)[C@H](CCC(=O)O)NC(=O)CN)C(=O)O` [Peptide S4, GER] (H-Gly-Glu-Arg-OH), at hCOX-2, the “Ratio, index of selectivity SI =” value was 0.8111 and the IC50 worked out at 80.6 ± 2.14 µM. Besides, on hCOX-1, it took 99.3 ± 1.14 µM to reach half-maximal inhibition (IC50).

For the compound `C[C@H](N)C(=O)N[C@@H](CCC(=O)O)C(=O)N[C@@H](CCCNC(=N)N)C(=O)O` [Peptide S9, AER] (H-Ala-Glu-Arg-OH), the IC50 at hCOX-2 was 68.3 ± 5.43 µM; at hCOX-1, 221.6 ± 1.04 µM.

As to `NCC(=O)N[C@@H](Cc1c[nH]cn1)C(=O)N[C@@H](CCC(=O)O)C(=O)O` [Peptide S3, Gly-His-Glu] (H-Gly-His-Glu-OH), at hCOX-2, the “Ratio, index of selectivity SI =” value is listed as 0.6225 and the IC50 is 94.9 ± 2.12 µM. Besides, half-maximal inhibition on hCOX-1 (IC50) was put at 152 ± 5.18 µM.

Take WCS: in the assay on COX-2, the “inhibition of COX-2 activity” value was “more than 85%”.

For the compound `C[C@H](NC(=O)[C@H](CCCNC(=N)N)NC(=O)[C@@H](N)CCC(=O)O)C(=O)O` [Peptide S2, ERA] (H-Glu-Arg-Ala-OH), at hCOX-2, the “Ratio, index of selectivity SI =” value is recorded as 0.8443 and the IC50 was found to be 121 ± 2.33 µM. The compound also showed an IC50 against hCOX-1 of 143 ± 2.57 µM.

The record behind these values is article PMC3600326, “Design, Synthesis, and Evaluation of New Tripeptides as COX-2 Inhibitors” (Journal of Amino Acids, 2013).
